Assay results taken from BindingDB's records for doi:10.1016/j.bioorg.2015.10.007 (University of Thessaly, 2015).

How the values were obtained:
[1] = molecular target: T1, Non-secretory ribonuclease (Homo sapiens, UniProt P10153); experiment: Ribonuclease Activity Assay; conditions: 30 °C
T1 sequence (P10153 whole entry): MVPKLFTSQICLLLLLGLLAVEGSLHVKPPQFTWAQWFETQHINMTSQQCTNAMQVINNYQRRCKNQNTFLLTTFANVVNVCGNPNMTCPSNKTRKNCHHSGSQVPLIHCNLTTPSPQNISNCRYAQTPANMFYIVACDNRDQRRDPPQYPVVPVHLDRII
Description: (§1) The Ribonuclease Activity assay used was adapted from the procedure described by Anfinsen et al. and Slifman et al. Determination of ribonuclease activity of RNase A and EDN proceeded as follows: yeast tRNA (Sigma-Aldrich) was solubilized in 50 mM sodium phosphate, pH = 7.4, at a concentration of 60 uM. Various tRNA concentrations were used: 2 uM, 3 uM, 4 uM, 5 uM and 6 uM. The final volume of the reaction was 300 ul. tRNA solutions were incubated at 30 C for 10 min. 10 nM of enzyme final concentration from a 0.6 uM stock solution added to the reactionmixture. The reaction was stopped one minute and five minutes later in the case of RNase A and EDN respectively, by the addition of 300 ul of fresh ice-cold solution of 40 mM lanthanum nitrate, 6% v/v perchloric acid. Stopped reactions were maintained on ice for 15 min, and insoluble tRNA was removed by centrifugation at 4 C for 15 min at 14.500 rpm on a bench centrifuge. The amountof cleaved tRNA was determined from the ultraviolet absorbance at 260 nm (A260) of the supernatant fraction.

Ribonuclease pancreatic = Ribonuclease pancreatic (Bos taurus, UniProt P61823); experiment: Ribonuclease Activity Assay; conditions: 30 °C
Sequence of Ribonuclease pancreatic (P61823 whole entry): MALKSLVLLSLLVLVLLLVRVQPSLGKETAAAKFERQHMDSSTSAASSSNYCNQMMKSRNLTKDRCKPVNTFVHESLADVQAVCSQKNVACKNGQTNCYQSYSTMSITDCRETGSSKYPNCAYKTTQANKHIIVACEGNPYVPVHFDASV
Description: as §1

## O=c1ccn(Cc2cn([C@@H]3O[C@H](CO)[C@H](O)C3O)nn2)c(=O)[nH]1 (stereo partly drawn) [1-({1-[(2R,5R)-3,4-dihydroxy-5-(hydroxymethyl)oxolan-2-yl]-1H-1,2,3-triazol-4-yl}methyl)-1,2,3,4-tetrahydropyrimidine-2,4-dione (I)]
[1]
  IC50: 179 µM
  Ki: 116 µM

## O=c1[nH]c(=O)n(Cc2cn([C@@H]3O[C@H](CO)[C@H](O)C3O)nn2)cc1F (stereo partly drawn) [1-({1-[(2R,5R)-3,4-dihydroxy-5-(hydroxymethyl)oxolan-2-yl]-1H-1,2,3-triazol-4-yl}methyl)-5-fluoro-1,2,3,4-tetrahydropyrimidine-2,4-dione (III)]
[1]
  IC50: 63.7 µM
  Ki: 44.2 µM

## Nc1ncnc2c1ncn2Cc1cn([C@@H]2C(O)[C@H](n3cc(F)c(=O)[nH]c3=O)O[C@@H]2CO)nn1 (stereo partly drawn) [1-[3'-[4-[(Adenine-9-yl)methyl]-1,2,3-triazol-1-yl]-b-D-ribofuranosyl]5-fluorouracil (5c)]
Ribonuclease pancreatic
  Ki: 265 µM

## Nc1ncnc2c1ncn2Cc1cn([C@@H]2C(O)[C@H](n3ccc(=O)[nH]c3=O)O[C@@H]2CO)nn1 (stereo partly drawn) [1-[3'-[4-[(Adenine-9-yl)methyl]-1,2,3-triazol-1-yl]-b-D-ribofuranosyl]uracil (5a)]
Ribonuclease pancreatic
  Ki: 159 µM

## O=c1[nH]c(=O)n([C@@H]2O[C@H](CO)[C@H](O)C2O)cc1F (stereo partly drawn) [1-[(2R,5R)-3,4-dihydroxy-5-(hydroxymethyl)oxolan-2-yl]-5-fluoro-1,2,3,4-tetrahydropyrimidine-2,4-dione (VI)]
[1]
  IC50: 282 µM
  Ki: 208 µM

## Cc1cn([C@@H]2O[C@H](CO)[C@H](O)C2O)c(=O)[nH]c1=O (stereo partly drawn) [1-[(2R,5R)-3,4-dihydroxy-5-(hydroxymethyl)oxolan-2-yl]-5-methyl-1,2,3,4-tetrahydropyrimidine-2,4-dione (IV)]
[1]
  IC50: 33.1 µM
  Ki: 26.1 µM

## O=c1[nH]c(=O)n(Cc2cn([C@@H]3O[C@H](CO)[C@H](O)C3O)nn2)cc1Cl (stereo partly drawn) [5-chloro-1-({1-[(2R,5R)-3,4-dihydroxy-5-(hydroxymethyl)oxolan-2-yl]-1H-1,2,3-triazol-4-yl}methyl)-1,2,3,4-tetrahydropyrimidine-2,4-dione (II)]
[1]
  IC50: 535 µM
  Ki: 454 µM

## O=c1[nH]c(=O)n([C@@H]2O[C@H](CO)[C@H](O)C2O)cc1Cl (stereo partly drawn) [5-chloro-1-[(2R,5R)-3,4-dihydroxy-5-(hydroxymethyl)oxolan-2-yl]-1,2,3,4-tetrahydropyrimidine-2,4-dione (V)]
[1]
  IC50: 1460 µM
  Ki: 1080 µM

## NC1=NC=NC2C1N=CN2[C@@H]1O[C@H](CO)[C@H](n2cc(Cn3ccc(N)nc3=O)nn2)C1O (stereo partly drawn) [9-[3'-[4-[(Cytosine-1-yl)methyl]-1,2,3-triazol-1-yl]-b-D-ribofuranosyl]adenine (11c)]
[1]
  IC50: 88.6 µM
  Ki: 57.8 µM
Ribonuclease pancreatic
  Ki: 98.5 µM

## Cc1cn(Cc2cn([C@@H]3C(O)[C@H](n4cnc5c(NC(=O)c6ccccc6)ncnc54)O[C@@H]3CO)nn2)c(=O)[nH]c1=O (stereo partly drawn) [9-[3'-[4-[(Thymine-1-yl)methyl]-1,2,3-triazol-1-yl]-b-D-ribofuranosyl]N6-benzoyladenine (11b)]
[1]
  IC50: 379 µM
  Ki: 247 µM
Ribonuclease pancreatic
  Ki: 150 µM

## Cc1cn(Cc2cn([C@@H]3C(O)[C@H](N4C=NC5C(N)=NC=NC54)O[C@@H]3CO)nn2)c(=O)[nH]c1=O (stereo partly drawn) [9-[3'-[4-[(Thymine-1-yl)methyl]-1,2,3-triazol-1-yl]-b-D-ribofuranosyl]adenine (12b)]
[1]
  IC50: 559 µM
  Ki: 365 µM
Ribonuclease pancreatic
  Ki: 68.8 µM

## O=C(Nc1ncnc2c1ncn2[C@@H]1O[C@H](CO)[C@H](n2cc(Cn3ccc(=O)[nH]c3=O)nn2)C1O)c1ccccc1 (stereo partly drawn) [9-[3'-[4-[(Uracil-1-yl)methyl]-1,2,3-triazol-1-yl]-b-D-ribofuranosyl]N6-benzoyladenine (11a)]
[1]
  IC50: 409 µM
  Ki: 267 µM
Ribonuclease pancreatic
  Ki: 55.5 µM

## NC1=NC=NC2C1N=CN2[C@@H]1O[C@H](CO)[C@H](n2cc(Cn3ccc(=O)[nH]c3=O)nn2)C1O (stereo partly drawn) [9-[3'-[4-[(Uracil-1-yl)methyl]-1,2,3-triazol-1-yl]-b-D-ribofuranosyl]adenine (12a)]
[1]
  IC50: 652 µM
  Ki: 426 µM
Ribonuclease pancreatic
  Ki: 106 µM
